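1) Cells in 96-well plates. 2) Compound, 48 h, 5 concentrations. 3) Linear interpolation between surrounding doses. 4) Unreached endpoint = highest concentration. GI50 = concentration required for 50% inhibition of growth. TGI marks complete inhibition of growth.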
Key:
Test in all cases: DTP human tumour cell line panel, 48 h
[1] = test system: ACHN renal
[2] = test system: CAKI-1 renal
[3] = test system: LOX IMVI melanoma
[4] = test system: NCI-H23 lung
[5] = test system: OVCAR-4 ovarian
[6] = test system: RXF 393 renal
[7] = test system: SK-MEL-2 melanoma
[8] = test system: MCF7 breast
[9] = test system: MDA-MB-231 breast
[10] = test system: MDA-MB-435

SMILES | TGI [1] | TGI [2] | TGI [3] | TGI [4] | TGI [5] | TGI [6] | TGI [7] | TGI [8] | TGI [9] | TGI [10] | GI50 [2]
NC(=S)N/N=C/c1nccc2ccccc12 | 1.01 µM | 58.7 µM | 2.64 µM | 6.42 µM | > 100 µM | 0.902 µM | > 100 µM | – | – | – | –
CCN(CC)C(=O)Cn1c(-c2ccccc2)cc2ccccc21 | > 100 µM | – | > 100 µM | > 100 µM | > 100 µM | 97.4 µM | > 100 µM | > 100 µM | > 100 µM | > 100 µM | –
C1=NCCN2CCN(CCN=Cc3ccccc3OCc3cccc(n3)COc3ccccc31)CC2 | 25.6 µM | – | – | > 50 µM | 26.6 µM | 4.68 µM | > 50 µM | 9.29 µM | 34 µM | 2.22 µM | –
COc1cc(=O)c2c(O)c3c(O)oc(C)cc3c(OC)c2c1 | 63 µM | 97.5 µM | – | 69.8 µM | 27.9 µM | > 100 µM | 98.9 µM | > 100 µM | 62.5 µM | 32.7 µM | –
O=Cc1c2n(c3ccccc13)N[C@@](Cc1ccc(O)cc1)(C(=O)O)C2 | > 100 µM | > 100 µM | > 100 µM | > 100 µM | > 100 µM | – | > 100 µM | > 100 µM | > 100 µM | > 100 µM | –
CCCC(=O)Nc1cc(/C=C/C(=O)N2CC(CCl)c3c2cc(OCc2ccccc2)c2[nH]cc(C)c32)n(C)c1 (stereo not given) | 0.0833 µM | 2.09 µM | 6.71 µM | 0.0654 µM | 0.889 µM | 0.0852 µM | 0.218 µM | – | > 25 µM | 0.918 µM | –
CCN(CC)Cc1cc(Nc2c3ccccc3nc3c2[nH]c2ccccc23)cc(CN(CC)CC)c1O | 3.48 µM | 4.26 µM | – | 2.62 µM | 1.81 µM | 1.25 µM | 3.24 µM | 9.07 µM | 2.62 µM | 2.04 µM | –
c1cnn(C23C4C5C6C4C2C6C53)c1 (stereo not given) | > 100 µM | – | > 100 µM | > 100 µM | – | – | > 100 µM | > 100 µM | > 100 µM | > 100 µM | –
Cc1c2ccnc(C(=O)NCCN(C)C)c2cc2c3cc(O)ccc3n(C)c12 | 0.397 µM | – | 1.26 µM | 1.7 µM | 2.22 µM | 2.31 µM | 1.7 µM | 5.75 µM | 3.35 µM | 1.54 µM | –
N#C[C@H](C(=O)c1ccccc1F)c1nc2ccccc2s1 | > 100 µM | > 100 µM | > 100 µM | > 100 µM | – | > 100 µM | 51.1 µM | – | > 100 µM | > 100 µM | –
O=C(c1ccccc1)c1ccc(N2C(=O)/C(=C/Cc3ccco3)N=C2c2ccccc2)c(N2C(=O)/C(=C/Cc3ccco3)N=C2c2ccccc2)c1 | > 100 µM | > 100 µM | 58.3 µM | – | > 100 µM | – | 58.6 µM | > 100 µM | > 100 µM | 94.9 µM | –
O=C(Cn1cc(-c2ccccc2)nn1)NC1CCCCC1 | > 100 µM | > 100 µM | > 100 µM | > 100 µM | > 100 µM | – | > 100 µM | > 100 µM | > 100 µM | > 100 µM | –
CCN1CCCC(C#N)(c2ccccc2)CC1 (stereo not given) | > 100 µM | > 100 µM | – | > 100 µM | > 100 µM | > 100 µM | – | – | – | – | –
CCOc1ccc(N/C(=C(/C(Cl)=C(/Cl)Nc2ccccc2)[N+](=O)[O-])n2nnc3ccccc32)cc1 | > 100 µM | 60.4 µM | – | 32.6 µM | > 100 µM | – | 73.7 µM | > 100 µM | 58.1 µM | 87.5 µM | –
Cc1[nH]c(=O)nc2c1C(NCCCN(C)C)c1cc(Cl)ccc1N2 (stereo not given) | 30.2 µM | – | 24.5 µM | 32.3 µM | – | 27 µM | 31.5 µM | – | – | – | –
c1ccc2c(c1)NCCC(=NC1CCCCC1)N2 | > 100 µM | > 100 µM | – | > 100 µM | > 100 µM | > 100 µM | > 100 µM | – | > 100 µM | > 100 µM | –
C(/C=C/c1ccccc1)=Nc1ccc2c(c1)Cc1ccccc1-2 | > 100 µM | > 100 µM | 63 µM | > 100 µM | > 100 µM | > 100 µM | > 100 µM | – | > 100 µM | > 100 µM | –
CC1=NN(C(=O)c2ccccc2O)C(=O)/C1=C/c1cccc(O)c1 | > 100 µM | > 100 µM | > 80.5 µM | – | > 100 µM | – | > 48.4 µM | > 100 µM | > 100 µM | – | –
CCc1c(CN)c(CC)c(CNC2=NCCN2)c(CC)c1CNC1=NCCN1 | > 100 µM | > 100 µM | – | > 100 µM | > 100 µM | > 100 µM | > 100 µM | > 100 µM | – | > 100 µM | –

SMILES | TGI [1] | TGI [2] | TGI [3] | TGI [4] | TGI [5] | TGI [6] | TGI [7] | TGI [8] | TGI [9] | TGI [10] | GI50 [2]
COc1ccc(N=C2S/C(=N\C(=Nc3ccccc3)SCc3ccccc3)N(c3ccccc3)C2=Nc2ccc(OC)cc2)cc1 | – | – | – | > 100 µM | – | > 100 µM | > 100 µM | > 100 µM | > 100 µM | – | –
Cc1nc2c(c(=O)[nH]1)S/C(=C(/C#N)c1nc3ccccc3[nH]1)N2c1ccccc1 | > 100 µM | > 100 µM | – | > 100 µM | > 100 µM | > 100 µM | > 100 µM | – | – | – | –
Nc1ccc2nc3c(nc2c1)C(=O)c1ccccc1-3 | > 100 µM | – | – | > 100 µM | > 100 µM | > 100 µM | – | > 100 µM | > 100 µM | > 100 µM | –
Cc1ccc(/C=N/n2c(Cc3ccccc3)n[nH]c2=O)cc1 | > 100 µM | > 100 µM | > 100 µM | > 100 µM | > 100 µM | > 100 µM | – | – | > 100 µM | – | –
C=C(C)C(=O)O[C@H]1CC2=C[C@@H](C[C@@]3(C)O[C@@H]3[C@H]3OC(=O)C(=C)[C@@H]31)OC2=O | – | 6.25 µM | 1.29 µM | 6.59 µM | 6.48 µM | 1.16 µM | 8.81 µM | 5.42 µM | – | – | 2.63 µM
Clc1c(Cl)c(Cl)c2c(nnn2C2CCCO2)c1Cl (stereo not given) | – | 74.9 µM | – | 49.3 µM | 54.5 µM | > 100 µM | 73.3 µM | > 100 µM | > 100 µM | > 100 µM | –
CCOP(=O)(C=C=C1CCC2[C@@H]3CCc4cc(OC)ccc4C3CC[C@]12C)OCC (stereo not given in full) | 21.9 µM | 26.6 µM | 24.8 µM | 20.8 µM | 21.3 µM | 14.8 µM | 26.5 µM | 20.7 µM | – | 25.5 µM | –
CCOC(=O)CCC(NC(=O)Cc1ccc(Nc2nc3ccccc3nc2-c2cccs2)cc1)C(=O)OCC (stereo not given) | > 100 µM | > 100 µM | – | > 100 µM | > 100 µM | 52.5 µM | > 100 µM | > 100 µM | > 100 µM | > 100 µM | –
Nc1ccccc1Nc1ccccc1C(=O)[O-].Nc1ccccc1Nc1ccccc1C(=O)[O-].[Zn+2] | > 100 µM | > 100 µM | – | > 100 µM | – | – | 43.2 µM | – | – | – | –
CCOP(=O)(OCC)C(C)(C)N(C)/C(F)=N/C(F)(F)F | > 100 µM | > 100 µM | > 100 µM | > 100 µM | > 100 µM | – | > 100 µM | > 100 µM | > 100 µM | > 100 µM | –
COc1ccccc1C1C(Cl)C(=O)N1n1cnc2ccccc2c1=O (stereo not given) | > 100 µM | > 100 µM | > 100 µM | > 100 µM | > 100 µM | > 100 µM | > 100 µM | – | – | – | –
Clc1ccc(Nc2nnc(CCCCCCCCc3nnc(Nc4ccc(Cl)cc4)o3)o2)cc1 | > 100 µM | > 100 µM | – | 90.6 µM | > 100 µM | – | > 100 µM | > 100 µM | > 100 µM | > 100 µM | –
Oc1cc(O)c2ccc(-c3ccc(O)c(O)c3)[o+]c2c1 | > 100 µM | > 100 µM | > 100 µM | > 100 µM | > 100 µM | > 100 µM | > 100 µM | > 100 µM | – | > 100 µM | –
O=C1c2cccnc2S(=O)(=O)N1c1ccc(Oc2ccccc2)cc1 | > 100 µM | > 100 µM | – | > 100 µM | > 100 µM | > 100 µM | > 100 µM | > 100 µM | > 100 µM | > 100 µM | –
O=C(O)CSCc1cc2c(O)c(c1)Cc1cc(CSCC(=O)O)cc(c1O)Cc1cc(CSCC(=O)O)cc(c1O)Cc1cc(CSCC(=O)O)cc(c1O)C2 | > 100 µM | > 100 µM | > 100 µM | > 100 µM | > 100 µM | > 100 µM | > 100 µM | > 100 µM | – | > 100 µM | –
O=P1(Oc2ccccc2)N=P(c2ccccc2)(c2ccccc2)C=C(c2ccc(Cl)cc2)N1 (stereo not given) | 25.6 µM | 23 µM | – | 32.2 µM | – | – | 27.6 µM | 9.31 µM | 32.1 µM | 17.1 µM | –
N#Cc1cnc(-n2[nH]c3c(c2=O)CCCC3)[nH]c1=O | > 100 µM | > 100 µM | – | > 100 µM | > 100 µM | > 100 µM | > 100 µM | > 100 µM | > 100 µM | > 100 µM | –
CCCCc1ccc(Nc2nc(Cl)c3ncn(COCCOC(C)=O)c3n2)cc1 | 32.7 µM | – | 27.9 µM | 31.4 µM | > 100 µM | 38.2 µM | 31.5 µM | 93.7 µM | 30.6 µM | 33.1 µM | –

Reference: PubChem BioAssay (NCI)
